The source of these data is EP0997459A1, “Intermediates for preparing retroviral protease inhibiting compounds” (priority 1990, dated 1992).

One experiment deals with HIV-1 protease (Human immunodeficiency virus type 1 group M subtype B, UniProt P04585). Nature of the experiment: Fluorogenic assay for screening inhibitors of HIV protease. It is filed as biochemical. Conditions: read-out: Percent Inhibition. On the procedure:
Fluorogenic Assay for Screening Inhibitors of HIV Protease
The inhibitory potency of the compounds of the invention can be determined by the following method.
A compound of the invention is dissolved in DMSO and a small aliquot further diluted with DMSO to 100 times the final concentration desired for testing. The reaction is carried out in a 6 X 50 mm tube in a total volume of 300 microliters. The final concentrations of the components in the reaction buffer are: 125 mM sodium acetate, 1 M sodium chloride, 5 mM dithiothreitol, 0.5 mg/ml bovine serum albumin, 1.3 µM fluorogenic substrate, 2% (v/v) dimethylsulfoxide, pH 4.5. After addition of inhibitor, the reaction mixture is placed in the fluorometer cell holder and incubated at 30°C for several minutes. The reaction is initiated by the addition of a small aliquot of cold HIV protease. The fluorescence intensity (excitation 340 nm, emmision 490 nM) is recorded as a function of time. The reaction rate is determined for the first six to eight minutes. The observed rate is directly proportional to the moles of substrate cleaved per unit time. The percent inhibition is 100 X (1 - (rate in presence of inhibitor)/(rate in absence of inhibitor)).

A further experiment deals with HIV-13B. Nature of the experiment: Antiviral activity: inhibition of the cytopathic effect of HIV in MT4 cells (procedure of Pauwels et al.). Format: cell-based. The conditions noted are these: Human immunodeficiency virus 1, MT4. From the text: The anti-HIV activity of the compounds of the invention can be determined in MT4 cells according to the procedure of Pauwels et. al. (J. Virol. Methods 1988, 20, 309).

Where [1] appears, read: Inhibitor Concentration 0.5 nanomolar.

Read-outs that look alike come from different tables or passages of the source.

For the compound `CC(C)[C@H](NC(=O)N(C)Cc1ccccn1)C(=O)N[C@@H](Cc1ccccc1)[C@@H](O)C[C@H](Cc1ccccc1)NC(=O)OCc1cccnc1` [Example 37C, (2S,3S,5S)-2-(N-(N-((N-Methyl-N-((2-pyridinyl)-methyl)amino)carbonyl)valinyl)amino)-5-(N-((3-pyridinyl)methoxycarbonyl)amino)-1,6-diphenyl-3-hydroxyhexane], at HIV-1 protease, the inhibition at 0.001 µM was 61%. For the same compound, the IC50 with HIV-13B is 0.84 to 1.44 µM.

The compound `CC(C)[C@H](NC(=O)N(C)Cc1ccccn1)C(=O)N[C@@H](Cc1ccccc1)C[C@H](O)[C@H](Cc1ccccc1)NC(=O)OCc1cccnc1` [Example 38, (2S,3S,5S)-5-(N-(N-((N-Methyl-N-((2-pyridinyl)methyl)amino)carbonyl)valinyl)amino)-2-(N-((3-pyridinyl)methoxycarbonyl)amino)-1,6-diphenyl-3-hydroxyhexane] returned an IC50 in the experiment with HIV-13B of 0.55 to 0.61 µM.

As to `CC(C)[C@H](NC(=O)OCc1ccccn1)C(=O)N[C@@H](Cc1ccccc1)[C@@H](O)C[C@H](Cc1ccccc1)NC(=O)OCc1cccnc1` [Example 39, (2S,3S,5S)-2-(N-(N-((2-Pyridinyl)methoxycarbonyl)valinyl)amino)-5-(N-((3-pyridinyl)methoxycarbonyl)amino)-1,6-diphenyl-3-hydroxyhexane], the half-inhibitory concentration (IC50) in the experiment with HIV-13B was 0.13 to 0.25 µM.

For `CC[C@H](C)[C@H](NC(=O)N(C)Cc1ccccn1)C(=O)N[C@@H](Cc1ccccc1)C[C@H](O)[C@H](Cc1ccccc1)NC(=O)OCc1cccnc1` [Example 171], on HIV-1 protease (setting [1]), the inhibition at 0.0005 µM was 62%. The compound also registered a 50% inhibitory concentration (IC50) in the experiment on HIV-13B of 0.38 to 0.55 µM.

For the compound `O=C(N[C@@H](Cc1ccccc1)C[C@H](O)[C@H](Cc1ccccc1)NC(=O)OCc1cccnc1)OCc1cccnc1` [Example 174], the inhibition at 0.0005 µM at HIV-1 protease (setting [1]) amounted to 51%. This compound had a 50% inhibitory concentration (IC50) with HIV-13B of 0.14 to 0.23 µM.

`Cc1cccc(COC(=O)N[C@H](C(=O)N[C@@H](Cc2ccccc2)C[C@H](O)[C@H](Cc2ccccc2)NC(=O)OCc2cccnc2)C(C)C)n1` [Example 290, (2S,3S,5S)-2-(N-[(pyridin-3-yl)methoxycarbonyl]amino)-5-(N-[(6-methylpyridin-2-yl)methoxycarbonyl-valyl]amino)-1,6-diphenyl-3-hydroxyhexane] came in with an IC50 with HIV-13B of 0.026 to 0.075 µM.

Take `Cc1cccc(CN(C)C(=O)N[C@H](C(=O)N[C@@H](Cc2ccccc2)[C@@H](O)C[C@H](Cc2ccccc2)NC(=O)OCc2cccnc2)C(C)C)n1` [Example 297, (2S,3S-5S)-2-(N-(N-((N-Methyl-N-((6-methyl-2-pyridinyl)methyl)amino)carbonyl)valinyl)amino)-5-(N-((3-pyridinyl)-methoxycarbonyl)amino)-1,6-diphenyl-3-hydroxyhexane]: in the experiment on HIV-13B, the IC50 is 0.31 to 0.35 µM.

`Cc1cccc(CN(C)C(=O)N[C@H](C(=O)N[C@@H](Cc2ccccc2)C[C@H](O)[C@H](Cc2ccccc2)NC(=O)OCc2cccnc2)C(C)C)n1` [Example 298] came in with a 50% inhibitory concentration (IC50) in the experiment with HIV-13B of 0.22 to 0.29 µM.

On to `Cc1cccc(COC(=O)N[C@H](C(=O)N[C@@H](Cc2ccccc2)[C@@H](O)C(F)(F)[C@H](Cc2ccccc2)NC(=O)[C@@H](NC(=O)OCc2cccc(C)n2)C(C)C)C(C)C)n1` [Example 305], for which the inhibition at 0.0005 µM on HIV-1 protease (setting [1]) worked out at 91%. The IC50 in the experiment with HIV-13B lay within 0.005 to 0.017 µM.

Regarding `Cc1cccc(COC(=O)N[C@H](C(=O)N[C@@H](Cc2ccccc2)C(=O)C(F)(F)[C@H](Cc2ccccc2)NC(=O)[C@@H](NC(=O)OCc2cccc(C)n2)C(C)C)C(C)C)n1` [Example 306], the inhibition at 0.0005 µM on HIV-1 protease (setting [1]) came out at 88%. In the experiment on HIV-13B, this compound returned an IC50 of 0.007 to 0.019 µM.

Take `Cc1cnc(COC(=O)N[C@H](C(=O)N[C@@H](Cc2ccccc2)[C@@H](O)C[C@H](Cc2ccccc2)NC(=O)OCc2cccnc2)C(C)C)cn1` [Example 307]: the IC50 in the experiment with HIV-13B fell in the range of 0.16 to 0.26 µM.

In the experiment on HIV-13B, `Cc1cnc(COC(=O)N[C@H](C(=O)N[C@@H](Cc2ccccc2)C[C@H](O)[C@H](Cc2ccccc2)NC(=O)OCc2cccnc2)C(C)C)cn1` [Example 308] gave an IC50 of 0.077 to 0.124 µM.

In turn, `COc1ccc(COC(=O)N[C@H](C(=O)N[C@@H](Cc2ccccc2)C[C@H](O)[C@H](Cc2ccccc2)NC(=O)OCc2cccnc2)C(C)C)cn1` [Example 310] came in with a half-inhibitory concentration (IC50) with HIV-13B of 0.013 to 0.025 µM.

Compound `COc1ccc(CN(C)C(=O)N[C@H](C(=O)N[C@@H](Cc2ccccc2)[C@@H](O)C[C@H](Cc2ccccc2)NC(=O)OCc2cccnc2)C(C)C)cn1` [Example 311, (2S,3S,5S)-2-(N-(N-((N-Methyl-N-((6-methoxy-3-pyridinyl)methyl)amino)carbonyl)valinyl)amino)-5-(N-((3-pyridinyl)methoxycarbonyl)amino)-1,6-diphenyl-3-hydroxyhexane] came in with an IC50 in the experiment with HIV-13B of 0.058 to 0.067 µM.

As to `COc1ccc(CN(C)C(=O)N[C@H](C(=O)N[C@@H](Cc2ccccc2)C[C@H](O)[C@H](Cc2ccccc2)NC(=O)OCc2cccnc2)C(C)C)cn1` [Example 312], the half-maximal inhibitory concentration (IC50) in the experiment on HIV-13B lay within 0.058 to 0.077 µM.

In the experiment with HIV-13B, `Cc1cncc(CN(C)C(=O)N[C@H](C(=O)N[C@@H](Cc2ccccc2)[C@@H](O)C[C@H](Cc2ccccc2)NC(=O)OCc2cccnc2)C(C)C)c1` [Example 313, (2S,3S,5S)-2-(N-(N-((N-Methyl-N-((5-methyl-3-pyridinyl)methyl)amino)carbonyl)valinyl)amino)-5-(N-((3-pyridinyl)methoxycarbonyl)amino)-1,6-diphenyl-3-hydroxyhexane] came in with a half-maximal inhibitory concentration (IC50) of 0.46 to 0.5 µM.

For the compound `Cc1cncc(CN(C)C(=O)N[C@H](C(=O)N[C@@H](Cc2ccccc2)C[C@H](O)[C@H](Cc2ccccc2)NC(=O)OCc2cccnc2)C(C)C)c1` [Example 314], the IC50 with HIV-13B fell in the range of 0.098 to 0.144 µM.

`COc1ccc(COC(=O)N[C@H](C(=O)N[C@@H](Cc2ccccc2)C[C@H](O)[C@H](Cc2ccccc2)NC(=O)[C@@H](NC(=O)OCc2ccc(OC)nc2)C(C)C)C(C)C)cn1` [Example 315]: the inhibition at 0.0005 µM at HIV-1 protease worked out at […]. This compound also yielded an IC50 with HIV-13B of 0.003 to 0.005 µM.

Compound `CC(C)[C@H](NC(=O)OCc1ccccn1)C(=O)N[C@@H](Cc1ccccc1)[C@@H](O)C[C@H](Cc1ccccc1)NC(=O)OCc1cncnc1` [Example 319, (2S,3S,5S)-2-(N-(N-((2-Pyridinyl)methoxycarbonyl)valinyl)amino)-5-(N-((5-pyrimidinyl)methoxycarbonyl)amino)-1,6-diphenyl-3-hydroxyhexane] showed a half-inhibitory concentration (IC50) in the experiment on HIV-13B of 0.21 to 0.29 µM.

`CC(C)[C@H](NC(=O)N(C)Cc1ccccn1)C(=O)N[C@@H](Cc1ccccc1)C[C@H](O)[C@H](Cc1ccccc1)NC(=O)OCc1cncnc1` [Example 320, (2S,3S,5S)-5-(N-(N-((N-Methyl-N-((2-pyridinyl)methyl)amino)carbonyl)valinyl)amino)-2-(N-((5-pyrimidinyl)methoxycarbonyl)amino)-1,6-diphenyl-3-hydroxyhexane]: the IC50 in the experiment with HIV-13B lay in the range of 0.4 to 0.5 µM.

`CC(C)[C@H](NC(=O)OCc1ccccn1)C(=O)N[C@@H](Cc1ccccc1)C[C@H](O)[C@H](Cc1ccccc1)NC(=O)OCc1cncnc1` [Example 321, (2S,3S,5S)-5-(N-(N-((2-Pyridinyl)methoxycarbonyl)valinyl)amino)-2-(N-((5-pyrimidinyl)methoxycarbonyl)amino)-1,6-diphenyl-3-hydroxyhexane]: the inhibition at 0.0005 µM at HIV-1 protease worked out at 64%. The compound further returned a half-inhibitory concentration (IC50) in the experiment with HIV-13B of 0.14 to 0.19 µM.

In turn, `Cc1cccc(COC(=O)N[C@H](C(=O)N[C@@H](Cc2ccccc2)[C@@H](O)C[C@H](Cc2ccccc2)NC(=O)OCc2ccoc2)C(C)C)n1` [Example 322B, (2S,3S,5S)-2-(N-(N-(2-(6-Methylpyridinyl)methoxycarbonyl)valinyl)amino)-5-(N-((3-furyl)methoxycarbonyl)amino)-1,6-diphenyl-3-hydroxyhexane] showed a concentration for half-maximal inhibition (IC50) with HIV-13B of 0.086 to 0.094 µM.
